US20230069722A1, “TUBULYSINS AND PROTEIN-TUBULYSIN CONJUGATES” (priority 2020, published 2023)
Read-outs that look alike come from different tables or passages of the source.

Key:
[1] = tested on: SK-BR-3 human breast adenocarcinoma cell line; test: SK-BR-3 anti-proliferation / cell kill assay (CellTiter-Glo, 144 hrs); format: cell-based
Method: Anti-proliferation assays were performed using a SK-BR-3 human breast adenocarcinoma (pleural effusion) cell line. The cells were grown in McCoy's 5a Medium supplemented with 10% FBS, penicillin/streptomycin and L-glutamine. Cells were seeded 1000/well in 96-well plate in 80ul complete growth media one day prior to adding ADCs and incubated at 37° C. 5% CO2 overnight.
The ADCs were 1:3 serially diluted 10 points in assay media (Opti-MEM+0.1% BSA). The concentrations of the testing ADCs cover the range of 1 nM to ˜1000 nM and also starting from different concentrations based on the cell killing potency in order to see EC50 covers, leaving the last well (10th) as blank (no ADC or compound). ADCs were first 1:3 serially diluted 10 points in DMSO starting from […] (the starting concentration of each ADC is different according to the EC50s), leaving the last well as blank (containing only DMSO). 10 μl DMSO-diluted compound was transferred to 990 μl assay media (Opti-MEM+0.1% BSA) in a 96-well deep well dilution plate. 20 μl assay media-diluted ADC was added to cells. Cells were incubated at 37° C. […] for 6 days (144 hrs). Plates were developed by adding 100 μl CTG reagent/well to the cells CellTiter-Glo®, from Promega, Cat. No G7573), shaken at room temperature for 10 min, sealed with white adhesive bottom seal and luminescence was read with Envision. Cell kill %=[1−(T144sample−T144blank)/(T144DMSO−T144blank)]×100%, wherein T144 is the data at 144 hours.
The table below provides the drug-antibody ratios (DARs) for conjugates 1-37, along with the EC50 results from the SKBR assays for the same conjugates. The following linker-payloads (from Table P1) were prepared as described in PCT/US2019/068185, the content of which is hereby incorporated by reference in its entirety: LP4-Ve, LP4-Ve, LP25-Ve, LP25-Ve, LP26-Ve, LP26-Ve, LP17-Ve, LP13-Ve, LP19-Ve, LP2-Ve, LP21-Ve, LP6-Vb, LP24-Vb, LP23-Vb, and LP15-VIh.

HCT15 cells = test: MDR cell based killing assay, HCT15 cells with or without Verapamil (CellTiter-Glo); parameters: species or system human; details: for IC50: Homo sapiens; for HCT-15 with verapamil Ratio to Xa = H / HCT-15 Ratio to Xa = H: IC50 ratio to parent payload with Xa = H; for HCT-15 Ratio to Xa = H: without verapamil
Method: To test the ability of the disclosed tubulysin payloads or prodrug payloads to kill human cell lines, an in vitro cytotoxicity assay can be performed. In vitro cytotoxicity of the disclosed payloads, as well as reference compounds, are evaluated using the CellTiter-Glo Assay Kit (Promega, Cat # G7573), in which the quantity of ATP present is used to determine the number of viable cells in culture. For the assay, C4-2, HEK293, or T47D cells are seeded at 4000 cells/well on Nunclon white 96-well plates in complete growth medium (DME high glucose:Ham's F12 at 4:1, 10% FBS, 100 units/ml Penicillin, 100 ug/ml streptomycin, 53 ug/ml glutatmine, 10 ug/ml insulin, 220 ng/ml biotin, 12.5 pg/ml T3, 12.5 ug/ml Adenine, 4 ug/ml transferrin for C42 cells; DME high glucose, 10% FBS, 100 units/ml Penicillin, 100 ug/ml streptomycin, 53 ug/ml glutatmine for HEK293; RPMI, 10% FBS, 100 units/ml Penicillin, 100 ug/ml streptomycin, 53 ug/ml glutatmine, 10 ug/ml insulin, 10 mM HEPEs, 200 nM Sodium Pyruvate for T47D cells) and grown overnight at 37° C. in 5% CO2. For cell viability curves, 1:3 serially diluted payloads are added to the cells at final concentrations ranging from 100 nM to 15 pM, including a no treatment control group, and are then incubated for 5 days. After the 5-day incubation, cells are incubated at room temperature with 100 μL of CellTiter-Glo reagents for 10 minutes. Relative luminescence units (RLU) can be determined on a Victor plate reader (PerkinElmer). The IC50 values are determined from a four-parameter logistic equation over a 10-point response curve (GraphPad Prism). All IC50 values are expressed in molar (M) concentration. The percent cell killing (% kill) at the maximum concentration tested is estimated from the following formula (100−% viable cells). Averages±standard deviation (SD) can be included where replicate experiments are performed.
In vitro cytotoxicity of the disclosed payloads as well as reference compounds are evaluated similarly as described above except using 1000 HCT15 cells, a colorectal carcinoma cell line, in growth medium (RPMI, 10% FBS, 100 units/ml Penicillin, 100 ug/ml streptomycin, 53 ug/ml glutatmine) with or without 5 ug/mL of Verapamil.
For each payload or prodrug payload, the HCT-15 IC50 in the absence of Verapamil is divided by the HCT-15 IC50 in the presence of Verapamil (HCT-15 IC50/HCT-15+Verapamil IC50). […] The reference compound, (MMAE), can have a ratio of 23.7. […]

[2] = HCT-15, read-out: HCT-15 with verapamil IC50

What does the source list for `CCCCCCN(C(=O)[C@@H](NC(=O)[C@H]1CCCCN1C)[C@@H](C)CC)[C@H](C[C@@H](OC(C)=O)c1nc(C(=O)N[C@@H](Cc2ccc(NCCN)cc2)CC(C)(C)C(=O)O)cs1)C(C)C` [Compound P30, (4S)-4-({2-[(1R,3R)-1-(acetyloxy)-3-[(2S,3S)—N-hexyl-3-methyl-2-{[(2R)-1-methylpiperidin-2-yl]formamido}pentanamido]-4-methylpentyl]-1,3-thiazol-4-yl}formamido)-5-{4-[(2-aminoethyl)amino]phenyl}-2,2-dimethylpentanoic Acid]?
IC50 ([1]; Homo sapiens, SK-BR-3, read-out: SK-BR-3 IC50): 0.45 nM; SK-BR-3 Ratio to Xa = H ([1]; IC50 ratio to parent payload with Xa = H): 34x; IC50 (HCT15 cells; HCT-15, read-out: HCT-15 IC50): 2.64 nM; IC50 (HCT15 cells; [2]): 0.42 nM; HCT-15 with verapamil Ratio to Xa = H (HCT15 cells): 22x; HCT-15 Ratio to Xa = H (HCT15 cells): 155x

`C#CCCCON(C(=O)[C@@H](NC(=O)[C@H]1CCCCN1C)[C@@H](C)CC)[C@H](C[C@@H](OC(C)=O)c1nc(C(=O)N[C@@H](Cc2ccc(O)cc2)CC(C)(C)C(=O)O)cs1)C(C)C` [Compound P51, (4S)-4-({2-[(1R,3R)-1-(acetyloxy)-4-methyl-3-[(2S,3S)-3-methyl-2-{[(2R)-1-methylpiperidin-2-yl]formamido}-N-(pent-4-yn-1-yloxy)pentanamido]pentyl]-1,3-thiazol-4-yl}formamido)-5-(4-hydroxyphenyl)-2,2-dimethylpentanoic Acid] was tested. Which IC50 (HCT15 cells; HCT-15, read-out: HCT-15 IC50) did it give?
Its IC50 is 0.41 nM.

And the IC50 (HCT15 cells; [2])?
Its IC50 is 0.16 nM.

Which results are given for `CCCCCCN(C(=O)[C@@H](NC(=O)[C@H]1CCCCN1C)[C@@H](C)CC)[C@H](C[C@@H](O)c1nc(C(=O)N[C@@H](Cc2ccc(N)c(F)c2)CC(C)(C)C(=O)O)cs1)C(C)C` [Compound P1, (4S)-5-(4-amino-3-fluorophenyl)-4-({2-[(1R,3R)-3-[(2S,3S)—N-hexyl-3-methyl-2-{[(2R)-1-methylpiperidin-2-yl]formamido}pentanamido]-1-hydroxy-4-methylpentyl]-1,3-thiazol-4-yl}formamido)-2,2-dimethylpentanoic Acid]?
IC50 (HCT15 cells; HCT-15, read-out: HCT-15 IC50): 3 nM; IC50 (HCT15 cells; [2]): 0.26 nM

Which IC50 (HCT15 cells; HCT-15, read-out: HCT-15 IC50) does the source give for `C#CCCCON(C(=O)[C@@H](NC(=O)[C@H]1CCCCN1C)[C@@H](C)CC)[C@H](C[C@@H](O)c1nc(C(=O)N[C@@H](Cc2ccc(N)cc2)CC(C)(C)C(=O)O)cs1)C(C)C` [Compound P33, (4S)-5-(4-aminophenyl)-4-({2-[(1R,3R)-1-hydroxy-4-methyl-3-[(2S,3S)-3-methyl-2-{[(2R)-1-methylpiperidin-2-yl]formamido}-N-(pent-4-yn-1-yloxy)pentanamido]pentyl]-1,3-thiazol-4-yl}formamido)-2,2-dimethylpentanoic Acid] here?
Its IC50 is 81.7 nM.

What about the IC50 (HCT15 cells; [2]) of the same molecule?
Its IC50 is 28.1 nM.

Which IC50 (HCT15 cells; HCT-15, read-out: HCT-15 IC50) does the source give for `CCCCCCN(C(=O)[C@@H](NC(=O)[C@H]1CCCCN1C)[C@@H](C)CC)[C@H](C[C@@H](OC(C)=O)c1nc(C(=O)N[C@@H](Cc2ccc(NC(=O)CO)cc2)CC(C)(C)C(=O)O)cs1)C(C)C` [Compound P29, (4S)-4-({2-[(1R,3R)-1-(acetyloxy)-3-[(2S,3S)—N-hexyl-3-methyl-2-{[(2R)-1-methylpiperidin-2-yl]formamido}pentanamido]-4-methylpentyl]-1,3-thiazol-4-yl}formamido)-5-[4-(2-hydroxyacetamido)phenyl]-2,2-dimethylpentanoic Acid] here?
Its IC50 is 4.68 nM.

And the IC50 (HCT15 cells; [2])?
Its IC50 is 0.67 nM.

What about the “HCT-15 with verapamil Ratio to Xa = H” value (HCT15 cells) of the same molecule?
The value was 35x.

And the “HCT-15 Ratio to Xa = H” value (HCT15 cells)?
The value was 104x.

How did the IC50 (HCT15 cells; HCT-15, read-out: HCT-15 IC50) turn out when `CCCCCCN(C(=O)[C@@H](NC(=O)[C@H]1CCCCN1)[C@@H](C)CC)[C@H](C[C@@H](OCC)c1nc(C(=O)N[C@@H](Cc2ccc(N)c(F)c2)CC(C)(C)C(=O)O)cs1)C(C)C` [Compound P16, (4S)-5-(4-amino-3-fluorophenyl)-4-({2-[(1R,3R)-1-ethoxy-3-[(2S,3S)—N-hexyl-3-methyl-2-[(2R)-piperidin-2-ylformamido]pentanamido]-4-methylpentyl]-1,3-thiazol-4-yl}formamido)-2,2-dimethylpentanoic Acid] was run?
Its IC50 is 1.96 nM.

And the IC50 (HCT15 cells; [2])?
The IC50 was 0.18 nM.

What does the source list for `CCCCCCN(C(=O)[C@@H](NC(=O)[C@@]1(C)CCCN1)[C@@H](C)CC)[C@H](C[C@@H](OC(C)=O)c1nc(C(=O)N[C@@H](Cc2ccc(N)c(F)c2)CC(C)(C)C(=O)O)cs1)C(C)C` [Compound P15, (4S)-4-({2-[(1R,3R)-1-(acetyloxy)-3-[(2S,3S)—N-hexyl-3-methyl-2-{[(2R)-2-methylpyrrolidin-2-yl]formamido}pentanamido]-4-methylpentyl]-1,3-thiazol-4-yl}formamido)-5-(4-amino-3-fluorophenyl)-2,2-dimethylpentanoic Acid]?
IC50 (HCT15 cells; HCT-15, read-out: HCT-15 IC50): 1.01 nM; IC50 (HCT15 cells; [2]): 0.19 nM

`CCCCCON(C(=O)[C@@H](NC(=O)[C@H]1CCCCN1)[C@@H](C)CC)[C@H](C[C@@H](OC(C)=O)c1nc(C(=O)N[C@@H](Cc2ccc(N)cc2)CC(C)(C)C(=O)O)cs1)C(C)C` [Compound P36, (4S)-4-({2-[(1R,3R)-1-(acetyloxy)-4-methyl-3-[(2S,3S)-3-methyl-N-(pentyloxy)-2-[(2R)-piperidin-2-ylformamido]pentanamido]pentyl]-1,3-thiazol-4-yl}formamido)-5-(4-aminophenyl)-2,2-dimethylpentanoic Acid] was tested. Which IC50 (HCT15 cells; HCT-15, read-out: HCT-15 IC50) did it give?
Its IC50 is 12.2 nM.

Which IC50 (HCT15 cells; HCT-15, read-out: HCT-15 IC50) does the source give for `CCCCCCN(C(=O)[C@@H](NC(=O)[C@H]1CCCCN1C)[C@@H](C)CC)[C@H](C[C@@H](OCC)c1nc(C(=O)N[C@@H](Cc2ccc(N)c(F)c2)CC(C)(C)C(=O)O)cs1)C(C)C` [Compound P3, (4S)-5-(4-amino-3-fluorophenyl)-4-({2-[(1R,3R)-1-ethoxy-3-[(2S,3S)—N-hexyl-3-methyl-2-{[(2R)-1-methylpiperidin-2-yl]formamido}pentanamido]-4-methylpentyl]-1,3-thiazol-4-yl}formamido)-2,2-dimethylpentanoic Acid] here?
Its IC50 is 0.07 nM.

And the IC50 (HCT15 cells; [2])?
Its IC50 is 0.01 nM.

Which results are given for `CCCCCCN(C(=O)[C@@H](NC(=O)[C@H]1CCCCN1C)[C@@H](C)CC)[C@H](C[C@@H](OC(C)=O)c1nc(C(=O)N[C@@H](Cc2ccc(F)cc2)CC(C)(C)C(=O)O)cs1)C(C)C` [Compound P10, (4S)-4-({2-[(1R,3R)-1-(acetyloxy)-3-[(2S,3S)—N-hexyl-3-methyl-2-{[(2R)-1-methylpiperidin-2-yl]formamido}pentanamido]-4-methylpentyl]-1,3-thiazol-4-yl}formamido)-5-(4-fluorophenyl)-2,2-dimethylpentanoic Acid]?
IC50 (HCT15 cells; HCT-15, read-out: HCT-15 IC50): 0.24 nM; IC50 (HCT15 cells; [2]): 0.09 nM

For `C#CCCCON(C(=O)[C@@H](NC(=O)[C@H]1CCCCN1C)[C@@H](C)CC)[C@H](C[C@@H](OC(C)=O)c1nc(C(=O)N[C@@H](Cc2ccc(NC(=O)CO)cc2)CC(C)(C)C(=O)O)cs1)C(C)C` [Compound P37, (4S)-4-({2-[(1R,3R)-1-(acetyloxy)-4-methyl-3-[(2S,3S)-3-methyl-2-{[(2R)-1-methylpiperidin-2-yl]formamido}-N-(pent-4-yn-1-yloxy)pentanamido]pentyl]-1,3-thiazol-4-yl}formamido)-5-[4-(2-hydroxyacetamido)phenyl]-2,2-dimethylpentanoic Acid], which IC50 (HCT15 cells; HCT-15, read-out: HCT-15 IC50) is on record?
The IC50 was 102 nM.
